In patent US20220105206A1, “SENSITIVITY ADVANCES IN ULTRASOUND SWITCHABLE FLUORESCENCE SYSTEMS AND TECHNIQUES” (Board of Regents, The University of Texas System, priority 2020, published 2022):

Key:
[1] = cited from earlier work
[2] = Excitation and emission spectra of LNPs (Example 5); format: physicochemical; settings: 530 nm excitation, 25° C.
Method: The hydrodynamic sizes of liposomes were measured with the DLS particle analyzer (NanoBrook 90PlusPALS, Brookhaven Instruments, USA). The incident angle of the 659 nm laser was 90 degrees. Samples were diluted with DI water until the count rate reaches 300-700 kcps and the temperature was set at 25° C. The excitation and emission spectra of LNPs were characterized via a spectrometer (Fluoromax-Plus-C, Horiba, Japan) using a 300 μL quartz cuvette (Hellma, Germany) with stir at 25° C. The excitation spectrum was scanned from 650-810 nm with an 830 nm LP emission filter and an emission recording wavelength at 850 nm. The emission spectrum was acquired using a 530 nm excitation light with a 550 nm LP emission filter (Semrock, USA) and recorded from 650-850 nm.

[3] = literature value; cited from earlier work

emission peak [2]: 809 nm
Compound: CC1(C)C(/C=C/C=C/C=C/C=C2\N(CCCCS(=O)(=O)O)c3ccc4ccccc4c3C2(C)C)=[N+](CCCCS(=O)(=O)[O-])c2ccc3ccccc3c21 [ICG, indocyanine green]
degradation of aqueous solutions ([1]; DI water and buffered saline): degraded relatively quickly by day 20
plasma half-life [1]: 2 to 4 min
emission wavelength [3]: around 810 nm
maximum absorption wavelength [3]: around 785 nm
